# Assays:
# Assay type in all cases: functional
# Enterococcus faecium = test: Antibacterial activity against Enterococcus faecium by CLSI M100-S19 method
# Staphylococcus aureus = test: Antibacterial activity against methicillin-resistant Staphylococcus aureus by CLSI M100-S19 method
# Staphylococcus = test: Antibacterial activity against methicillin-resistant Staphylococcus
# Enterococcus faecalis = test: Antibacterial activity against Enterococcus faecalis ATCC 29212 by CLSI M100-S19 method
# Streptococcus pyogenes = test: Antibacterial activity against Streptococcus pyogenes ATCC BAA-595 by CLSI M100-S19 method
# Enterococcus = test: Antibacterial activity against vancomycin-resistant Enterococcus
Structure (SMILES),MIC (Enterococcus faecium) [µg/mL],MIC (Staphylococcus aureus) [µg/mL],MIC (Staphylococcus) [µg/mL],MIC (Enterococcus faecalis) [µg/mL],MIC (Streptococcus pyogenes) [µg/mL],MIC (Enterococcus) [µg/mL]
CNC(=O)C[C@@H]1NC(=O)c2csc(n2)-c2ccc(-c3nc(C4=N[C@H](C(=O)N5CCC[C@H]5C(N)=O)CO4)cs3)nc2-c2csc(n2)-c2csc(n2)[C@H]([C@@H](O)c2ccccc2)NC(=O)CNC(=O)c2nc(sc2COC)[C@H](C(C)C)NC(=O)c2nc1sc2C,0.25,0.25,1,0.5,1,1
CNC(=O)C[C@@H]1NC(=O)c2csc(n2)-c2ccc(-c3nc(NC(=O)OC(C)(C)C)cs3)nc2-c2csc(n2)-c2csc(n2)[C@H]([C@@H](O)c2ccccc2)NC(=O)CNC(=O)c2nc(sc2COC)[C@H](C(C)C)NC(=O)c2nc1sc2C,> 32,> 32,,> 32,> 32,
CNC(=O)C[C@@H]1NC(=O)c2csc(n2)-c2ccc(C(N)=O)nc2-c2csc(n2)-c2csc(n2)[C@H]([C@@H](O)c2ccccc2)NC(=O)CNC(=O)c2nc(sc2COC)[C@H](C(C)C)NC(=O)c2nc1sc2C,> 32,> 32,,32,> 32,
CNC(=O)C[C@@H]1NC(=O)c2csc(n2)-c2ccc(-c3nc(NC(C)=O)cs3)nc2-c2csc(n2)-c2csc(n2)[C@H]([C@@H](O)c2ccccc2)NC(=O)CNC(=O)c2nc(sc2COC)[C@H](C(C)C)NC(=O)c2nc1sc2C,1,2,,1,> 32,
CNC(=O)C[C@@H]1NC(=O)c2csc(n2)-c2ccc(-c3nc(NS(C)(=O)=O)cs3)nc2-c2csc(n2)-c2csc(n2)[C@H]([C@@H](O)c2ccccc2)NC(=O)CNC(=O)c2nc(sc2COC)[C@H](C(C)C)NC(=O)c2nc1sc2C,4,2,,2,> 32,
